Columns and labels:
[1] = system: THP-1 cells co-cultured with HT-29; assay: Immune cell proliferation in co-cultures of HT-29/THP-1; format: cell-based, human; settings: 100 μM
Method: We also determined the effect of the selected compounds on the human monocyte cells THP-1 in the described co-cultures (see Table 6).
(§1) To determine the action of the compounds on cancer cell proliferation in co-culture with immune cells, 10^5 or 2 × 10^5 of the HT-29 cells line were seeded in each well of 12-well plates and left at 37 °C for 24 h. Then, the cancer cells were treated with IFN-γ (10 ng/mL; human, Invitrogen®, Waltham, MA, USA) containing 5 × 10^5 or 10^5, respectively, of THP-1 cells per well and the corresponding compound at 100 μM or DMSO for the positive control. After 24 h/48 h of incubation, the supernatants were collected to establish the alive THP-1 cells using FSC and SCC flow cytometry. In addition, cancer cells were collected with trypsin, fixed with 4% in PBS paraformaldehyde and counted using flow cytometry.

[2] = system: CD11b; assay: CD11b detection on membrane of co-cultured THP-1; format: cell-based, human; settings: 1:5 HT-29/THP-1; 24 h; relative to non-treated co-cultured THP-1
Source text: (§2) Reducing the expression of CD11b has become a promising target for immune modulation in anticancer therapies. For that reason, we decided to study the effect of our compounds on CD11b in THP-1 cells co-cultured with HT-29. We also determined the relative amount of CD80, a common surface marker for monocytes.
(§3) The results are related to non-treated THP-1 cells when they were co-cultured with HT-29.
(§4) The action of the compounds on CDs in co-cultured THP-1 immune cells with cancer cell line HT-29 was tested by treating them with the compounds for 24 h/48 h (see Section 4.2.5). Surface CD11b and CD80 was determined by collecting THP-1 with trypsin, fixing with formaldehyde and staining with FITC Mouse monoclonal Anti-Human CD80 (Sigma-Aldrich SAB4700142) and Alexa Fluor® 647 Rabbit monoclonal Anti-CD11b (Merck #MABF366, Rahway, NJ, USA).

[3] = system: A-549 (pulmonary adenocarcinoma); assay: MTT cell proliferation assay, A-549; format: cell-based; settings: Homo sapiens, A549; MTT, 48 h treatment; read-out: IC50 A-549
Method: (§5) After the supernatant was discarded, we solved the formazan crystal in 100 µL of DMSO. The absorbance was then registered at 550 nm using a plate lector. For all concentrations of any compound, cell viability was expressed as the percentage of the ratio between the mean absorbance of the treated cells and the mean absorbance of the untreated cells. Three to five experiments were performed to establish the IC50 values (i.e., concentration half inhibiting cell proliferation, we used GraphPad Prism 7 software).

[4] = system: HT-29 (colon adenocarcinoma); assay: MTT cell proliferation assay, HT-29; format: cell-based; settings: Homo sapiens, HT-29; MTT, 48 h treatment; read-out: IC50 HT-29
Method: as §5

[5] = target: T1, VEGFR-2 (Homo sapiens, UniProt P35968); assay: VEGFR-2 relative quantification by flow cytometry in HT-29 cells; format: cell-based; settings: HT-29 cells, 20 μM, 24 h, relative to DMSO control = 100
T1 construct: assess the effect of our new ureas on these two proteins only on the HT-29 cancer cell line through the use of flow cytometry; endogenous in cells; host or cells: HT-29
T1 sequence (P35968 20-1356): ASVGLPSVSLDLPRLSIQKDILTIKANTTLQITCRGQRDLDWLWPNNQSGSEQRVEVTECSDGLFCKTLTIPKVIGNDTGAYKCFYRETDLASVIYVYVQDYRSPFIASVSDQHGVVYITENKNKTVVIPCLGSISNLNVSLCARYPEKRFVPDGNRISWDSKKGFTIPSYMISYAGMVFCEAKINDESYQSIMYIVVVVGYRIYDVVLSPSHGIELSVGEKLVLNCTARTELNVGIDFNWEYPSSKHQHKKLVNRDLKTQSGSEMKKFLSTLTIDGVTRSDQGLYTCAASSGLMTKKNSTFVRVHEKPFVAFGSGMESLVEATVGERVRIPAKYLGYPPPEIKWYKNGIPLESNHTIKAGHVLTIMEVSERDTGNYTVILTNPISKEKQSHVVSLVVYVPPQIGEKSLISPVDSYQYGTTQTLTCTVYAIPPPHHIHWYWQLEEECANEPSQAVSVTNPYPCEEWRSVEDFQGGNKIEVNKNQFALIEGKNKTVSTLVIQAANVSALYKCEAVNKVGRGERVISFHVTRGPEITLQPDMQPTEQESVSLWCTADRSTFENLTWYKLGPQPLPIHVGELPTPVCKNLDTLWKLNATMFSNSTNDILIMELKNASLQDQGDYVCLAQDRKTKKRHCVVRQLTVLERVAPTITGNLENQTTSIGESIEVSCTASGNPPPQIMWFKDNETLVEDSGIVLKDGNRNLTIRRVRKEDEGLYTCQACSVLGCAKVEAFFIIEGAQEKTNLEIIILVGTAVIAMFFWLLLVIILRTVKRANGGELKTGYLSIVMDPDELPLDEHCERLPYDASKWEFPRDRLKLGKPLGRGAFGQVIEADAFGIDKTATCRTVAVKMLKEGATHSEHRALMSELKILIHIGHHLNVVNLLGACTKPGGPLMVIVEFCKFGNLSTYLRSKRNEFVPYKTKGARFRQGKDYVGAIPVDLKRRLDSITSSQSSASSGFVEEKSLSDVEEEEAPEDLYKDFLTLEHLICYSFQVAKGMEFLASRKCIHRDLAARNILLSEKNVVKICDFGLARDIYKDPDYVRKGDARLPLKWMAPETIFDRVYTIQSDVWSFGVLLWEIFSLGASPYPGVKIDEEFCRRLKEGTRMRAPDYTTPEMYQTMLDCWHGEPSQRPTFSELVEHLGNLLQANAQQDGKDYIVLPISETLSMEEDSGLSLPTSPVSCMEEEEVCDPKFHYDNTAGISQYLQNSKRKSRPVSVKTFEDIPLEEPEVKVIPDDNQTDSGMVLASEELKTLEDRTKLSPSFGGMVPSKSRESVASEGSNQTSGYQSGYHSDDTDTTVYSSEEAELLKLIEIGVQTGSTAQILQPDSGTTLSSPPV
Method: (§6) The cells were incubated for a period of time of one day with doses of each of the selected compounds at two different doses: 20 and 100 µM concentrations.
(§7) The effects of the compounds on the target in the cancer cell lines compounds were tested using 20 and 100 µM doses. For that, 10^5 cells per well were seeded on a 12-well plate for 24 h with the corresponding dose of the tested compound in a total volume of 500 μL of cell media. To determine the total PD-L1 and VEGFR-2, the cells were collected and fixed with 4% in a PBS of formaldehyde. After this, a treatment with 0.5% in PBS Triton^TM X-100 permeabilized the membranes.
(§8) To determine surface PD-L1 and VEGFR-2, the assay used was similar to the above but avoided the permeabilization step (Triton^TM X-100).

[6] = target: T2, PD-L1 (Homo sapiens, UniProt Q9NZQ7); assay: PD-L1 relative quantification by flow cytometry in HT-29 cells; format: cell-based; settings: for total PD-L1 (%) expression: HT-29 cells, 24 h, relative to DMSO control = 100
T2 construct: assess the effect of our new ureas on these two proteins only on the HT-29 cancer cell line through the use of flow cytometry; endogenous in cells; host or cells: HT-29
T2 sequence (Q9NZQ7 19-290): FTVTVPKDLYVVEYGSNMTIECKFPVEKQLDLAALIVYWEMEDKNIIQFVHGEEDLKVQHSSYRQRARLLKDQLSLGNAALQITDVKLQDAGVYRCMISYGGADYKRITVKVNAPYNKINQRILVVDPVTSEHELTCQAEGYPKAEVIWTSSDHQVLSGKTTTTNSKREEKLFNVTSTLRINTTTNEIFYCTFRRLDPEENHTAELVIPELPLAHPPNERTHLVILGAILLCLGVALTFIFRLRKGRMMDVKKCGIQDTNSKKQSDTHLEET
Method: as §6
as §7, with “membranes. Finally, the cells were treated with FITC Mouse monoclonal Anti-Human VEGFR-2 (ab184903) and Alexa Fluor® 647 Rabbit monoclonal Anti-PD-L1 (ab215251).” for “membranes.”
as §8

[7] = system: CD80; assay: CD80 detection on membrane of co-cultured THP-1; format: cell-based, human; settings: 1:5 HT-29/THP-1; 24 h; relative to non-treated co-cultured THP-1
Source text: as §2, §3, §4

[8] = system: HEK-293 (human embryonic kidney cells); assay: MTT cell proliferation assay, HEK-293; format: cell-based; settings: HEK293, 48 h treatment
Method: (§9) The action on cell proliferation caused by our developed compounds was studied using an MTT assay using the human tumor cell lines of HT-29 (colon adenocarcinoma) and A-549 (pulmonary adenocarcinoma), as well as toward the non-tumor cell line HEK-293 (human embryonic kidney cells), Jurkat T-cells and human microvessel endothelial cells (HMEC-1).
(§10) In general, 5 × 10^3 (HT-29, A549, HMEC-1, Jurkat and HEK-293) cells per well were seeded in 96-well plates with 1:1 dilutions of the compounds in a volume of 100 μL of the cell media. The 3-(4,5-dimethylthiazol-2-yl)-2,5-diphenyltetrazolium bromide (MTT; Sigma Chemical Co.) dye exclusion assay was performed, and after 48 h (37 °C, 5% CO2 in a humid atmosphere), 10 μL of MTT (5 mg/mL in phosphate-buffered saline, PBS) was added to each well and incubated for 3 h at 37 °C. After the supernatant was discarded, we solved the formazan crystal in 100 µL of DMSO. The absorbance was then registered at 550 nm using a plate lector. For all concentrations of any compound, cell viability was expressed as the percentage of the ratio between the mean absorbance of the treated cells and the mean absorbance of the untreated cells. Three to five experiments were performed to establish the IC50 values (i.e., concentration half inhibiting cell proliferation, we used GraphPad Prism 7 software).

[9] = system: Jurkat T-cells; assay: MTT cell proliferation assay, Jurkat T-cells; format: cell-based; settings: Homo sapiens, Jurkat, 48 h, 48 h treatment
Method: as §9, §10

[10] = system: HT-29 cells co-cultured with THP-1; assay: Cancer cell proliferation in co-cultures of HT-29 and THP-1; format: cell-based, human; settings: 100 μM
Method: To establish the potential of the selected compounds as immunomodulator agents, we studied the effect of the selected compounds on HT-29 cell proliferation when co-cultured with human monocytic leukemia cell line THP-1. For the study, we used different proportions of cancer and immune cells. Standard protocol proportions were 1:5 cancer/immune cells. We include a test using a 2:1 proportion of HT-29 cells to THP-1 cells. The tests were performed for two periods of time: 24 and 48 h, using 100 μM doses of the selected compounds and BMS-8 as the reference compound.
as §1

[11] = system: human microvessel endothelial cells (HMEC-1); assay: MTT cell proliferation assay, HMEC-1; format: cell-based; settings: Homo sapiens, HMEC-1, 48 h, 48 h treatment
Method: as §9, §10

[12] = system: HMEC-1 endothelial cells; assay: Microvessel formation inhibition assay on Matrigel; format: cell-based, human; settings: HMEC-1 on Matrigel
Method: The antiangiogenic action of the selected compounds, as well as the reference compounds, was evaluated by determining the effect on the formation of new microvessels formed by HMEC-1 endothelial cells on a Matrigel matrix.
We used IBIDI μ-slide angiogenesis plates (IBIDI, Martins ried, Germany). The wells were coated with 15 μL of Matrigel® (10 mg/mL, BD Biosciences, San Jose, CA, USA) at 4 °C and incubated at 37 °C for at least 30 min. Afterward, the HMEC-1 cells were seeded at 2 × 10^4 cells/well in 25 μL of medium and were left for 30 min at 37 °C while they attached. Then, the compounds were added in serial doses in 25 μL of the medium, and after several hours (maximum 24 h) of incubation at 37 °C, pictures for the wells were taken to evaluate the formation of microvessels.

SMILES: Cc1c(COc2ccc(CN3CCCCC3C(=O)O)cc2Br)cccc1-c1ccccc1 (stereo not drawn) [BMS-8, reference compound]
- THP-1 cell proliferation in co-culture ([1]; 1:5 HT-29/THP-1, 24 h): 158 ± 6
- THP-1 cell proliferation in co-culture ([1]; 1:5 HT-29/THP-1, 48 h): 124 ± 0
- THP-1 cell proliferation in co-culture ([1]; 2:1 HT-29/THP-1, 24 h): 385 ± 12
- THP-1 cell proliferation in co-culture ([1]; 2:1 HT-29/THP-1, 48 h): 186 ± 10
- % CD11b expression in membrane of THP-1 [2]: 79 ± 5%
- IC50 [3]: 6 ± 1 µM
- IC50 [4]: 19 ± 2 µM
- total VEGFR-2 (%) expression [5]: 86 ± 21%
- inhibition of PD-L1 expression ([6]; HT-29, total PD-L1, 20 μM): around 15%
- total PD-L1 (%) expression ([6]; 20 μM): 82 ± 21%
- total PD-L1 (%) expression ([6]; 100 μM): 67 ± 20%
- % CD80 expression in membrane of THP-1 [7]: 93 ± 3%
- IC50 [8]: 60 ± 10 µM
- IC50 [9]: > 100 µM
- HT-29 cancer cell proliferation in co-culture ([10]; 1:5 HT-29/THP-1, 24 h): 11 ± 6
- HT-29 cancer cell proliferation in co-culture ([10]; 1:5 HT-29/THP-1, 48 h): 21 ± 3
- HT-29 cancer cell proliferation in co-culture ([10]; 2:1 HT-29/THP-1, 24 h): 8 ± 1
- HT-29 cancer cell proliferation in co-culture ([10]; 2:1 HT-29/THP-1, 48 h): 16 ± 2

SMILES: CNC(=O)c1cc(Oc2ccc(NC(=O)Nc3ccc(Cl)c(C(F)(F)F)c3)cc2)ccn1 [Sorafenib, sorafenib, reference compound]
- IC50 [3]: 27 ± 2 µM
- IC50 [4]: 17 ± 4 µM
- IC50 [11]: 34 ± 3 µM
- effect on total PD-L1 ([6]; HT-29, at either of the tested doses (20 and 100 μM)): No significant effect
- total PD-L1 (%) expression ([6]; 20 μM): 96 ± 49%
- total PD-L1 (%) expression ([6]; 100 μM): 102 ± 10%
- IC50 [8]: 5 ± 0.7 µM
- Minimum Active Conc. inhibiting microtube formation [12]: 10 µM

SMILES: CCN(CC)CCNC(=O)c1c(C)[nH]c(/C=C2\C(=O)Nc3ccc(F)cc32)c1C [Sunitinib, reference compound]
- Minimum Active Conc. inhibiting microtube formation [12]: 3 µM
